# Reference: publication PMC7126465 (Bioorganic & Medicinal Chemistry, 2017)
# Where two headings read alike, the source gives them in different places.
# Key:
# [1] = system: human embryonic lung (HEL) cells; test: Cytotoxicity, alteration of cell morphology; format: cell-based; conditions: microscopically detectable alteration of cell morphology
# [2] = system: HSV; test: organism not typed; format: cell-based, herpes simplex virus; conditions: for EC50: HEL, read-out: EC50 range against HSV
# [3] = system: VZV; test: microbe, parasite or virus in culture; format: cell-based, varicella-zoster virus; conditions: for EC50: Human alphaherpesvirus 3, HEL, read-out: EC50 range against VZV
# [4] = system: Vaccinia virus; test: microbe, parasite or virus in culture; format: cell-based, vaccinia virus Lederle strain; conditions: for EC50: read-out: EC50 (HEL) Vaccinia virus
# [5] = system: human embryonic lung (HEL) cells; test: Cytostatic activity, inhibition of HEL cell growth; format: cell-based
# [6] = system: herpesviruses (HSV, VZV, HCMV); test: Anti-herpesvirus activity overall; format: cell-based; conditions: for Anti-herpesvirus activity (in words): HEL cells
# [7] = system: HCMV; test: microbe, parasite or virus in culture; format: cell-based, human cytomegalovirus; conditions: for EC50: read-out: EC50 range against HCMV
# [8] = system: HSV-2 (G); test: Antiviral CPE inhibition, HSV-2; format: cell-based, herpes simplex virus type 2; conditions: read-out: EC50 (HEL) HSV-2 (G); HEL cells
# [9] = system: HSV-1 TK− KOS ACVr; test: Antiviral CPE inhibition, TK- HSV-1 KOS ACVr in HEL cells; format: cell-based, herpes simplex virus type 1; conditions: read-out: EC50 (HEL) HSV-1 TK− KOS ACVr
# [10] = system: VZV TK+ (Oka); format: cell-based, varicella-zoster virus; conditions: read-out: EC50 (HEL) VZV TK+ (Oka); HEL cells
# [11] = system: VZV TK− (07-1); format: cell-based, varicella-zoster virus; conditions: read-out: EC50 (HEL) VZV TK− (07-1)
# [12] = system: HCMV (AD-169); test: Antiviral assay, HCMV; format: cell-based, human cytomegalovirus; conditions: read-out: EC50 (HEL) HCMV (AD-169); HEL cells
# [13] = system: HCMV (Davis); test: Antiviral assay, HCMV; format: cell-based, human cytomegalovirus; conditions: read-out: EC50 (HEL) HCMV (Davis); HEL cells
compound,measurement,setting,value
"Nc1nc2c(ncn2COCCO)c(=O)[nH]1 [Acyclovir, reference compound]",Cytotoxicity MCC (minimum cytotoxic concentration),[1],>440 µM
"O=c1[nH]c(=O)n([C@H]2C[C@H](O)[C@@H](CO)O2)cc1/C=C/Br [Brivudin, reference compound]",Cytotoxicity MCC (minimum cytotoxic concentration),[1],300 µM
"Nc1ccn(C[C@@H](CO)OCP(=O)(O)O)c(=O)n1.O.O [Cidofovir, reference compound]",Cytotoxicity MCC (minimum cytotoxic concentration),[1],≥300 µM
"Nc1cc(OCCOCP(=O)(O)O)nc(N)n1 [Compound 1, 2,4-diamino-6-[2-(phosphonomethoxy)ethoxy]pyrimidine]",Cytotoxicity MCC (minimum cytotoxic concentration),[1],>100 µM
same,"Selectivity index (SI, ratio CC50/EC50) HSV",[2]; range over HSV strains,1.7–4.5
same,"Selectivity index (SI, ratio CC50/EC50) VZV",[3]; range over VZV strains,19–44
"CC(C)(C)C(=O)OCOP(=O)(COCCOc1cc(N)nc(N)n1)OCOC(=O)C(C)(C)C [Compound 2, Bis(pivaloyloxymethyl) ester of 2,4-diamino-6-[2-(phosphonomethoxy)ethoxy]pyrimidine]",EC50,"[4]; Orthopoxvirus vaccinia, HEL",≥ 20 µM
same,Cytotoxicity MCC (minimum cytotoxic concentration),[1],≥100 µM
same,Fold more cytostatic than PMEO-DAPy,[5],5.5 fold
same,Fold more active than PMEO-DAPy (anti-herpesvirus activity),[6],2 to 4.5 fold
"CC(C)(C)C(=O)OCOP(=O)([O-])COCCOc1cc(N)nc(N)n1.[Na+] [Compound 3, Pivaloyloxymethyl ester of 2,4-diamino-6-[2-(phosphonomethoxy)ethoxy]-pyrimidine]",Cytotoxicity MCC (minimum cytotoxic concentration),[1],>100 µM
same,Anti-herpesvirus activity (in words),[6],potency and selectivity virtually identical to PMEO-DAPy
"CCOC(=O)[C@H](C)NP(=O)(COCCOc1cc(N)nc(N)n1)N[C@@H](C)C(=O)OCC [Compound 5, Bis(L-alanineethyl ester) prodrug of 2,4-diamino-6-[2-(phosphonomethoxy)ethoxy]pyrimidine]",Anti-vaccinia virus activity (in words),[4],very low anti-vaccinia virus activity without selectivity
same,Cytotoxicity MCC (minimum cytotoxic concentration),[1],217 µM
same,Fold more active than parental drug PMEO-DAPy (HSV),[2],6–20 fold
same,"Selectivity index (SI, ratio CC50/EC50) HSV",[2]; range over HSV strains,4–15
same,Fold more active than parental drug PMEO-DAPy (VZV),[3],3–16 fold
same,"Selectivity index (SI, ratio CC50/EC50) VZV",[3]; range over VZV strains,15–52
same,EC50,"[7]; Human betaherpesvirus 5, HEL",17 to 29 µM
same,"Selectivity index (SI, ratio CC50/EC50) HCMV",[7]; range over HCMV strains,≤ 1
"CC(C)OC(=O)OCOP(=O)(COCCn1cnc(N)nc1=O)OCOC(=O)OC(C)C [Compound 7, Bis[(isopropoxycarbonyl)oxymethyl] ester of 1-[2-(phosphonomethoxy)ethyl]-5-azacytosine]",Cytotoxicity MCC (minimum cytotoxic concentration),[1],>100 µM
"CC(C)OC(=O)OCOP(=O)(O)COCCn1cnc(N)nc1=O [Compound 8, (Isopropoxycarbonyl)oxymethyl ester of 1-[2-(phosphonomethoxy)ethyl]-5-azacytosine]",Cytotoxicity MCC (minimum cytotoxic concentration),[1],>100 µM
same,Anti-herpesvirus activity (in words),[6],minimal or no anti-herpesvirus activities
"CC(C)(C)C(=O)OCOP(=O)(COCCn1cnc(N)nc1=O)OCOC(=O)C(C)(C)C [Compound 9, Bis(pivaloyloxymethyl) ester of 1-[2-(phosphonomethoxy)ethyl]-5-azacytosine]",Cytotoxicity MCC (minimum cytotoxic concentration),[1],209 µM
same,EC50,[2],0.7 to 1.3 µM
same,"Selectivity index (SI, ratio CC50/EC50) HSV",[2]; range over HSV strains,37–63
same,EC50,[3],0.7 to 1.3 µM
same,"Selectivity index (SI, ratio CC50/EC50) VZV",[3]; range over VZV strains,35–71
same,EC50,"[7]; Human betaherpesvirus 5, HEL",1 to 3 µM
same,"Selectivity index (SI, ratio CC50/EC50) HCMV",[7]; range over HCMV strains,14–47
"CC(C)(C)C(=O)OCOP(=O)([O-])COCCn1cnc(N)nc1=O.[Na+] [Compound 10, Pivaloyloxymethyl ester of 1-[2-(phosphonomethoxy)ethyl]-5-azacytosine, sodium salt]",Cytotoxicity MCC (minimum cytotoxic concentration),[1],>275 µM
same,Anti-herpesvirus activity (in words),[6],minimal or no anti-herpesvirus activities
"CCOC(=O)[C@H](Cc1ccccc1)NP(=O)(COCCn1cnc(N)nc1=O)N[C@@H](Cc1ccccc1)C(=O)OCC [Compound 12, Bis(L-phenylalanineethyl ester) prodrug of 1-[2-(phosphonomethoxy)ethyl]-5-azacytosine]",Cytotoxicity MCC (minimum cytotoxic concentration),[1],>100 µM
same,EC50,[2],32 to 42 µM
same,EC50,[3],27 to 29 µM
same,EC50,"[7]; Human betaherpesvirus 5, HEL",7.5 to 15.5 µM
"CCOC(=O)[C@H](Cc1ccccc1)NP(=O)(O)COCCn1cnc(N)nc1=O [Compound 13, (L-Phenylalanine ethyl ester) prodrug of 1-[2-(phosphonomethoxy)ethyl]-5-azacytosine]",Cytotoxicity MCC (minimum cytotoxic concentration),[1],>100 µM
same,Anti-herpesvirus activity (in words),[6],lacked activity against herpesviruses
"COP(=O)(O)COCCn1cnc(N)nc1=O [Compound 14, Methyl ester of [2-(phosphonomethoxy)ethyl]-5-azacytosine]",Cytotoxicity MCC (minimum cytotoxic concentration),[1],>100 µM
same,Anti-herpesvirus activity (in words),[6],lacked activity against herpesviruses
"CCCCCCCCCCCCCCCCCCOCCOP(=O)(COCCn1cnc(N)nc1=O)OCCOCCCCCCCCCCCCCCCCCC [Compound 15, Bis(octadecyloxyethyl) ester of 1-[2-(phosphonomethoxy)ethyl]-5-azacytosine]",Cytotoxicity MCC (minimum cytotoxic concentration),[1],20 µM
same,Anti-herpesvirus activity (in words),[6],deprived of anti-herpesvirus properties
"CCCCCCCCCCCCCCCCCCOCCNc1ncn(CCOCP(=O)(OCCOCCCCCCCCCCCCCCCCCC)OCCOCCCCCCCCCCCCCCCCCC)c(=O)n1 [Compound 16, Bis(octadecyloxyethyl) ester of N^4-octadecyloxyethyl-1-[2-(phosphonomethoxy)ethyl]-5-azacytosine]",Cytotoxicity MCC (minimum cytotoxic concentration),[1],100 µM
same,Anti-herpesvirus activity (in words),[6],deprived of anti-herpesvirus properties
"CCCCCCCCCCCCCCCCCCOCCOP(=O)(O)COCCn1cnc(N)nc1=O [Compound 17, Octadecyloxyethyl ester of 1-[2-(phosphonomethoxy)ethyl]-5-azacytosine]",Cytotoxicity MCC (minimum cytotoxic concentration),[1],100 ± 0 µM
same,EC50,[2],0.15 to 0.35 µM
same,"Selectivity index (SI, ratio CC50/EC50) HSV",[2]; range over HSV strains,226–528
same,EC50,[3],0.32 to 0.8 µM
same,"Selectivity index (SI, ratio CC50/EC50) VZV",[3]; range over VZV strains,100–248
same,EC50,"[7]; Human betaherpesvirus 5, HEL",0.24 to 1.12 µM
same,"Selectivity index (SI, ratio CC50/EC50) HCMV",[7]; range over HCMV strains,71–330
"CCCCCCCCCCCCCCCCNC(=O)[C@@H](N)Cc1ccc(OP(=O)(COCCn2cnc(N)nc2=O)Oc2ccc(C[C@H](N)C(=O)NCCCCCCCCCCCCCCCC)cc2)cc1 [Compound 23, Bis(Hexadecylamido-L-tyrosyl) ester of 1-[2-(phosphonomethoxy)ethyl]-5-azacytosine]",Cytotoxicity MCC (minimum cytotoxic concentration),[1],60 ± 57 µM
same,"Selectivity index (SI, ratio CC50/EC50) HSV",[2],45–68
same,"Selectivity index (SI, ratio CC50/EC50) VZV",[3],47–93
same,"Selectivity index (SI, ratio CC50/EC50) HCMV",[7],13–56
"Nc1nc(O)c2ncn(COC(CO)CO)c2n1 [Ganciclovir, reference compound]",Cytotoxicity MCC (minimum cytotoxic concentration),[1],>350 µM
"Bis[(isopropoxycarbonyl)oxymethyl] ester of 2,4-diamino-6-[2-(phosphonomethoxy)ethoxy]pyrimidine [Compound 4]",EC50,[8],1.01 ± 0.86 µM
same,EC50,[9],3.7 ± 3 µM
same,EC50,[10],0.32 ± 0.37 µM
same,EC50,[11],0.29 ± 0.19 µM
same,EC50,[12],90.1 µM
same,EC50,[13],86.3 ± 5.4 µM
same,Anti-vaccinia virus activity (in words),[4],very low anti-vaccinia virus activity without selectivity
same,EC50,[4],160 ± 60 µM
same,Cytotoxicity MCC (minimum cytotoxic concentration),[1],>202 µM
same,Fold more active than parental drug PMEO-DAPy (HSV),[2],6–20 fold
same,"Selectivity index (SI, ratio CC50/EC50) HSV",[2]; range over HSV strains,4–15
same,Fold more active than parental drug PMEO-DAPy (VZV),[3],3–16 fold
same,"Selectivity index (SI, ratio CC50/EC50) VZV",[3]; range over VZV strains,15–52
same,"Selectivity index (SI, ratio CC50/EC50) HCMV",[7]; range over HCMV strains,≤ 1
same,EC50,"[7]; range over HCMV strains, HEL cells",86 to 90 µM
